Assay results reported in the supplement of paper PMC4862054.

What was measured:
Details in all cases: incubation time: 72 h
[1] = tested on: HDQ-P1; assay: drug sensitivity score (DSS), CellTiter-Glo (DSS (AUC-based score)); higher = stronger drug effect (viability inhibition or cytotoxicity); extreme values may be limits of the assay
Summary of the method: (§1)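 Normalisation on every plate relied on 0.1 % DMSO and a positive kill control. The plates, 384-well format, held compound at 5 concentrations 10-fold apart across a compound-specific 10,000-fold range, and breast cancer cell lines in 20 µl suspension were incubated on them for 72 h before CellTox Green and then CellTiter-Glo readings. The drug sensitivity score derives from the area under the fitted dose-response curve.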

[2] = tested on: BT-474; assay: as above
Summary of the method: as §1

[3] = tested on: HCC1143; assay: as above
Summary of the method: as §1

[4] = tested on: HCC1937; assay: as above
Summary of the method: as §1

[5] = tested on: MCF-10A; assay: as above
Summary of the method: as §1

[6] = tested on: MDA-MB-231; assay: as above
Summary of the method: as §1

[7] = tested on: HDQ-P1; assay: normalised viability (% of control), CellTiter-Blue; higher = more viable cells (about 100 = DMSO control)
Summary of the method: (§2)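 Seeded at 20 µl suspension per well onto compound-loaded 384-well plates, breast cancer cell lines were incubated 72 h. CellTiter-Blue fluorescence at 560/590 nm was then read, with each plate normalised to vehicle (100) and a positive kill control (0). Normalised viability is reported at a single listed concentration of the series.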

[8] = tested on: CAL-85-1; assay: as above
Summary of the method: as §2

[9] = tested on: MDA-MB-436; assay: as above
Summary of the method: as §2

[10] = tested on: HCC1599; assay: as above
Summary of the method: as §2

[11] = tested on: CAL-148; assay: as above
Summary of the method: as §2

[12] = tested on: BT-474; assay: as above
Summary of the method: as §2

[13] = tested on: HCC1143; assay: as above
Summary of the method: as §2

[14] = tested on: HCC1937; assay: as above
Summary of the method: as §2

[15] = tested on: MDA-MB-468; assay: as above
Summary of the method: as §2

[16] = tested on: MFM-223; assay: as above
Summary of the method: as §2

[17] = tested on: DU-4475; assay: as above
Summary of the method: as §2

[18] = tested on: CAL-120; assay: as above
Summary of the method: as §2

[19] = tested on: Hs578T; assay: as above
Summary of the method: as §2

[20] = tested on: SK-BR-3; assay: as above
Summary of the method: as §2

[21] = tested on: CAL-51; assay: as above
Summary of the method: as §2

[22] = tested on: MDA-MB-453; assay: as above
Summary of the method: as §2

[23] = tested on: MDA-MB-231; assay: as above
Summary of the method: as §2

[24] = tested on: BT-549; assay: as above
Summary of the method: as §2

CO[C@H]1C[C@@H]2CC[C@@H](C)[C@@](O)(O2)C(=O)C(=O)N2CCCC[C@H]2C(=O)O[C@H]([C@H](C)C[C@@H]2CC[C@@H](O)[C@H](OC)C2)CC(=O)[C@H](C)/C=C(\C)[C@@H](O)[C@@H](OC)C(=O)[C@H](C)C[C@H](C)/C=C/C=C/C=C/1C [Sirolimus]
Details | drug sensitivity score
[1] | 2.98
[2] | 2.79
[3] | 5.31
[4] | 3.34
[5] | 0
[6] | 0

normalised viability [%]
Details | 0.3 nM | 1 nM | 3 nM | 10 nM | 100 nM | 1000 nM
[7] | 88.9 | – | 66.3 | 71.3 | – | –
[8] | 86.1 | – | 58.2 | 66 | – | –
[9] | – | 93.3 | – | – | 84.5 | 87.2
[10] | – | 88.4 | – | – | 56.7 | 75.3
[11] | 96.1 | – | 53.9 | 53.3 | – | –
[12] | – | 74.7 | – | – | 75.1 | 67.5
[13] | – | 90.3 | – | – | 71.6 | 71.4
[14] | – | 58 | – | – | 46.3 | 59
[15] | – | 70.2 | – | – | 65.3 | 69.5
[16] | – | 56.2 | – | – | 47.5 | 47.1
[17] | 99.1 | – | 61.4 | 65.8 | – | –
[18] | – | 79.6 | – | – | 53.4 | 47.3
[19] | – | 65.5 | – | – | 53.1 | 51.8
[20] | – | 84.8 | – | – | 48.4 | 43
[21] | 80 | – | 45.8 | 34.5 | – | –
[22] | 86.1 | – | 34.2 | 32.2 | – | –
[23] | – | 74 | – | – | 62.8 | 87
[24] | – | 55.6 | – | – | 57.5 | 45.2

CN1CCN(c2nc(C3=C(c4c[nH]c5ccccc45)C(=O)NC3=O)c3ccccc3n2)CC1 [Sotrastaurin]
Details | drug sensitivity score
[1] | 0.186
[2] | 0
[3] | 0
[4] | 0
[5] | 0
[6] | 0

normalised viability [%]
Details | 3 nM | 10 nM | 30 nM | 100 nM | 1000 nM | 10000 nM
[7] | 88.9 | – | 98.8 | 94.1 | – | –
[8] | 106 | – | 111 | 130 | – | –
[9] | – | 112 | – | – | 59.1 | 107
[10] | – | 121 | – | – | 108 | 101
[11] | 115 | – | 113 | 119 | – | –
[12] | – | 112 | – | – | 109 | 94.6
[13] | – | 135 | – | – | 119 | 120
[14] | – | 54.1 | – | – | 81.4 | 95.1
[15] | – | 95.6 | – | – | 93 | 89.8
[16] | – | 103 | – | – | 93.8 | 74
[17] | 98.6 | – | 94 | 115 | – | –
[18] | – | 110 | – | – | 118 | 110
[19] | – | 98.7 | – | – | 98.4 | 87.2
[20] | – | 95.6 | – | – | 103 | 73.1
[21] | 94.4 | – | 91 | 90.9 | – | –
[22] | 102 | – | 105 | 87.7 | – | –
[23] | – | 94.5 | – | – | 101 | 124
[24] | – | 82.5 | – | – | 92.8 | 74.2

CC/C(=C(\c1ccccc1)c1ccc(OCCN(C)C)cc1)c1ccccc1 [Tamoxifen]
Details | drug sensitivity score
[1] | 0
[2] | 0
[3] | 0
[4] | 1.17
[5] | 0
[6] | 0

normalised viability [%]
Details | 3 nM | 10 nM | 30 nM | 100 nM | 1000 nM | 10000 nM
[7] | 109 | – | 100 | 110 | – | –
[8] | 100 | – | 92 | 116 | – | –
[9] | – | 101 | – | – | 94.7 | 40.1
[10] | – | 102 | – | – | 107 | 90
[11] | 111 | – | 105 | 127 | – | –
[12] | – | 111 | – | – | 117 | 77.5
[13] | – | 113 | – | – | 110 | 120
[14] | – | 83.4 | – | – | 83.1 | 98.6
[15] | – | 100 | – | – | 106 | 9.44
[16] | – | 89 | – | – | 87.7 | 54.1
[17] | 99.9 | – | 95.7 | 110 | – | –
[18] | – | 110 | – | – | 100 | 82.1
[19] | – | 122 | – | – | 123 | 104
[20] | – | 101 | – | – | 107 | 80.9
[21] | 89.5 | – | 92.2 | 93.4 | – | –
[22] | 98.4 | – | 85.2 | 103 | – | –
[23] | – | 93.1 | – | – | 94.6 | 115
[24] | – | 83.3 | – | – | 82.8 | 56.5
